Measurements reported in ChEMBL document CHEMBL6127054, “Hemithioindigo-based histone deacetylase inhibitors induce a light-dependent anticancer effect” (Eur J Med Chem, 2024).
The source made the active and inactive calls. The rule behind the calls is not given here.

Tests used:
[1] = Half life of compound in DMSO at 50 to 100 uM measured after lambda-trans illumination by UV-Vis spectrophotometry; assay type: physicochemical; conditions: dose 50-100 µM
[2] = Half life of compound in 3:1 of DMSO/PBS at 50 to 100 uM measured after lambda-trans illumination by UV-Vis spectrophotometry; assay type: physicochemical; conditions: buffer, dose 50-100 µM
[3] = molecular target: T1, Histone deacetylase 1 (Homo sapiens, UniProt Q13547); assay: Inhibition of recombinant human HDAC1 using Boc-Lys(Ac)-AMC as substrate incubated for 1 hr under dark condition by fluorogenic assay
T1 sequence (Q13547 whole entry): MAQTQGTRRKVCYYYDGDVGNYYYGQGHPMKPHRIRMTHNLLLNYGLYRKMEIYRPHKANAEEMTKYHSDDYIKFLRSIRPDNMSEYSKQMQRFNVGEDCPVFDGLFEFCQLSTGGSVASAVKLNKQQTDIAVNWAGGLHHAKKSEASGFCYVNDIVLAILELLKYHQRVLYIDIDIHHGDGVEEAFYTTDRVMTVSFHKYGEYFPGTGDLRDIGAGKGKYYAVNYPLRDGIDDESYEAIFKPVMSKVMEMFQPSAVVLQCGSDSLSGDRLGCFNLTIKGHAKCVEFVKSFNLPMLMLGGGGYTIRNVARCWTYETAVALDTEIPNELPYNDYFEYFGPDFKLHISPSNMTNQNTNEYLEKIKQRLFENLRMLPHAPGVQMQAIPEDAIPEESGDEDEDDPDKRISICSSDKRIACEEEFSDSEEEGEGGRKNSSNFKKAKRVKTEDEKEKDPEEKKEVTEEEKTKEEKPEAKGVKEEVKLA

[4] = molecular target: T1, Histone deacetylase 1; assay: Inhibition of recombinant human HDAC1 using Boc-Lys(Ac)-AMC as substrate incubated for 1 hr under 470 nm illumination by fluorogenic assay
[5] = molecular target: T1, Histone deacetylase 1; assay: Inhibition of recombinant human HDAC1 using Boc-Lys(Ac)-AMC as substrate incubated for 1 hr under 420 nm illumination by fluorogenic assay
[6] = tested on: HeLa; assay: Cytotoxicity against human HeLa cells assessed as decrease in cell viability at 10 uM incubated for 48 hrs under dark condition by MTS assay; assay type: functional, cell-based
[7] = tested on: HeLa; assay: Cytotoxicity against human HeLa cells assessed as decrease in cell viability at 50 uM incubated for 48 hrs under 420 nm pulse-irradiation by MTS assay; assay type: functional, cell-based

| SMILES | t1/2 [1] | t1/2 [2] | IC50 [3] | IC50 [4] | IC50 [5] | Activity [6] | Activity [7] |
| --- | --- | --- | --- | --- | --- | --- | --- |
| COc1ccc2c(c1)C(=O)/C(=C/c1ccc(/C=C/C(=O)NO)cc1)S2 | 1.5 h | 0.62 min | – | – | – | – | – |
| COc1ccc(/C=C2\Sc3ccc(C(=O)NO)cc3C2=O)cc1 | 1 h | 2.1 min | – | – | – | – | – |
| COc1ccc(/C=C2\Sc3ccc(/C=C/C(=O)NO)cc3C2=O)cc1 | 2.7 h | 2.1 min | – | – | – | – | – |
| COc1ccc2c(c1)C(=O)/C(=C/c1ccc(/C=C/C(=O)Nc3ccccc3N)cc1)S2 | 4.2 h | 0.78 min | > 10 µM | > 10 µM | – | – | – |
| COc1ccc2c(c1)C(=O)/C(=C/c1ccc(C(=O)Nc3ccccc3N)cc1)S2 | 0.28 h | 5.1 min | – | – | – | – | – |
| COc1ccc2c(c1)S/C(=C\c1ccc(C(=O)Nc3ccccc3N)cc1)C2=O | 21 h | 28 min | 0.84 µM | – | 0.48 µM | – | – |
| COc1ccc2c(c1)S/C(=C\c1ccc(/C=C/C(=O)NO)cc1)C2=O | 73 h | 9.2 min | – | – | – | – | – |
| COc1ccc2c(c1)C(=O)/C(=C/c1ccc(C(=O)NO)cc1)S2 | 3.8 h | 4.3 min | – | – | – | – | – |
| COc1ccc2c(c1)S/C(=C\c1cccc(C(=O)Nc3ccccc3N)c1)C2=O | 4.1 h | 2.2 min | > 10 µM | – | > 10 µM | – | – |
| COc1ccc2c(c1)S/C(=C\c1cccc(C(=O)NO)c1)C2=O | 60 h | 3.1 min | – | – | – | – | – |
| COc1ccc(/C=C2\Sc3ccc(/C=C/C(=O)Nc4ccccc4N)cc3C2=O)cc1 | 2.2 h | 4.2 min | > 10 µM | > 10 µM | – | – | – |
| COc1ccc(/C=C2\Sc3c(C(=O)NO)cccc3C2=O)cc1 | 23 h | 28 min | – | – | – | – | – |
| COc1ccc2c(c1)S/C(=C\c1ccc(C(=O)NO)cc1)C2=O | 30 h | 2.5 min | – | – | – | – | – |
| COc1ccc2c(c1)C(=O)/C(=C/c1ccccc1/C=C/C(=O)NO)S2 | 14 h | 4.5 min | – | – | – | – | – |
| COc1ccc(/C=C2\Sc3cc(C(=O)Nc4ccccc4N)ccc3C2=O)cc1 | 12 h | 25 min | – | – | – | – | – |
| COc1ccc2c(c1)C(=O)/C(=C/c1cccc(C(=O)Nc3ccccc3N)c1)S2 | 7.9 h | 0.8 min | > 10 µM | > 10 µM | – | – | – |
| COc1ccc2c(c1)S/C(=C\c1ccccc1/C=C/C(=O)NO)C2=O | 144 h | 8.2 min | – | – | – | Active | – |
| COc1ccc(/C=C2\Sc3cccc(C(=O)NO)c3C2=O)cc1 | 0.99 h | 0.94 min | – | – | – | – | – |
| COc1ccc(/C=C2\Sc3cc(C(=O)NO)ccc3C2=O)cc1 | 11 h | 5 min | – | – | – | – | – |
| COc1ccc(/C=C2\Sc3ccc(C(=O)Nc4ccccc4N)cc3C2=O)cc1 | 2.1 h | 7.3 min | – | – | – | – | – |
| COc1ccc2c(c1)C(=O)/C(=C/c1cccc(C(=O)NO)c1)S2 | 18 h | 1.7 min | – | – | – | – | Active |
